The text below walks through data of patent US8658646B2, “Pyrrolopyrazine kinase inhibitors” (Hoffmann-LaRoche Inc., priority 2011, dated 2014).

pIC50: −log10 of the molar value. Values joined by “and” are separate entries in the source; they are usually repeats but may differ in a detail not shown here. Equal entries are not always repeated.

Test [1] concerns the target T1, JAK3: Recombinant human kinase domain (Homo sapiens, UniProt P52333).
T1 construct: JAK3: Recombinant human kinase domain from Millipore (Cat #14-629) or prepared; purchased Millipore 14-629
Kind of test: Determination of IC50 of Janus Kinase (JAK) inhibition, radioactive end-point 33P-ATP assay, JAK3. The format is biochemical. As to conditions: ATP 1.5 uM, peptide 50 uM, 20 minutes, read-out: JAK3-INHIB-DR/v1~NO ADDITIVE~Enzyme_Conc = 100.
Description: Determination of IC50 of Janus Kinase (JAK) Inhibition:
Assay conditions used are described below: • Assay Buffer: JAK Kinase Buffer: 50 mM Hepes [pH 7.2], 10 mM MgCl2, 1 mM DTT, 1 mg/ml BSA. The assay was carried out in this buffer. • Assay Format The kinase activity of all three JAK kinases was measured using a radioactive, end-point assay and with trace amounts of ^33P-ATP. The assays were carried out in 96-well polypropylene plates. Experimental Method:
All concentrations were final in the reaction mixture and all incubations were carried at room temperature. […] Final concentration of DMSO in the reaction was 10%. • 2) Compounds were preincubated with enzyme (0.5 nM JAK3 (commercially available), 0.2 nM JAK3 (prepared), 1 nM JAK2, 5 nM JAK1) for 10 minutes. • 3) Reactions were initiated by the addition of a cocktail of the two substrates (ATP and peptide premixed in the JAK Kinase Buffer). […] JAK1 assay was carried out at an ATP concentration of 10 uM and a peptide concentration of 50 uM. • 4) The duration of the assay for JAK2 and JAK3 is 20 minutes. JAK1 assay was carried out for 40 minutes. With all three enzymes, reactions were terminated by the addition of 0.5M EDTA to a final concentration of 100 mM. • 5) 25 ul of terminated reactions were transferred to 150 ul of a 7.5% (v/v) slurry of streptavidin-coated sepharose beads in MgCl2- and CaCl2-free 1× Phosphate Buffered Saline containing 50 mM of EDTA in 96-well, 1.2 um MultiScreen-BV filter plates. • 6) After a 30-minute incubation, the beads were washed under vacuum with the following buffers: • a. 3 to 4 washes with 200 ul of 2M NaCl. • b. 3 to 4 washes with 200 ul of 2M NaCl plus 1% (v/v) phosphoric acid. • c. 1 wash with water. • 7) Washed plates were dried in a 60° C. oven for between 1 to 2 hours. • 8) 70 ul of Microscint 20 scintillation fluid was added to each well of filter plates and after at least 30 minutes of incubation, radioactive counts were measured in a Perkinelmer microplate scintillation counter.

The target of test [2] is T2, recombinant human SYK360-635 (Homo sapiens, UniProt P43405).
T2 construct: made in house
Kind of test: Determination of IC50 of Spleen Tyrosine Kinase (SYK) inhibition, 33P ATP filtration assay. The format is biochemical. As to conditions: SYK aa 360-635 0.5 nM; ATP 20 μM, peptide 5 μM, 0.1% BSA; read-out: SYK_ENZYME_FILTRATION/v1, BSA.
Description: All concentrations were final in the reaction mixture and all incubations were carried at room temperature. […] SYK Assay Information Determination of IC50 of Spleen Tyrosine Kinase (SYK) Inhibition:
SYK kinase assay is a standard kinase assay adapted to a 96 well plate format. This assay is performed in 96-well format for IC50 determination with 8 samples which represented 10 half log dilutions and a 40 μL reaction volume. The assay measures the incorporation of radiolabeled ^33P γATP into an N-terminally biotinylated peptide substrate, derived from naturally occurring phosphoacceptor consensus sequence (Biotin-11aa DY*E). […] Experimental Method:
DMSO and the mixture was incubated for 10 min at RT.
The kinase reaction was initiated by the addition of 10 μL 4× substrate cocktail containing the DYE peptide substrate [0 or 5 μM], ATP [20 μM] and ^33PγATP [2 μCi/r×n]. After incubation at 30° C. for 15 min, the reaction was terminated by the transfer of 25 μL pf the reaction sample to a 96 well 0.65 μm Millipore MADVNOB membrane/plate containing 200 μL 5 mM EDTA and 20% Streptavidine coated beads in PBS.
The unbound radionucleotides were washed under vacuum with 3×250 μL 2M NaCl; 2×250 μL 2M NaCl+1% phosphoric acid; 1×250 μL H2O. After the last wash membrane/plates were transferred to an adaptor plate, heat dried for 15 min at 60° C., and 50 μL scintillation cocktail was added to each well and 4 h later the amount of radioactivity was counted in a top counter.

T1 sequence (P52333 822-1111 limits assumed): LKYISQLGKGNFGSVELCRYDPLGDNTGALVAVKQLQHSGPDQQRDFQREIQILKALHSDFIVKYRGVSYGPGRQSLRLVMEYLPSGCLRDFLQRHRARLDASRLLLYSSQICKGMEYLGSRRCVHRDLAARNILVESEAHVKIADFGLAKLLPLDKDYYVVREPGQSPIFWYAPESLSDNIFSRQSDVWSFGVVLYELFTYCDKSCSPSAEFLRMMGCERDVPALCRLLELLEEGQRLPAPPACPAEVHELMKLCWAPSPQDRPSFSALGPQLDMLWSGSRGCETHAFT

For the compound `COC[C@@H](NC(=O)c1c[nH]c2ncc(-c3nn(C)c4cc(F)ccc34)nc12)[C@H](C)OC` [Example I-189, 2-(6-Fluoro-1-methyl-1H-indazol-3-yl)-5H-pyrrolo[2,3-b]pyrazine-7-carboxylic acid ((1R,2S)-2-methoxy-1-methoxymethyl-propyl)-amide], the pIC50 in test [1] is 7.73; in test [2] it was 6.61.
In the same order, the values of `Cn1nc(-c2cnc3[nH]cc(C(=O)NC(CO)C4CCCO4)c3n2)c2ccc(F)cc21` (centres unmarked) [Example I-190, 2-(6-Fluoro-1-methyl-1H-indazol-3-yl)-5H-pyrrolo[2,3-b]pyrazine-7-carboxylic acid [2-hydroxy-1-(tetrahydro-furan-2-yl)-ethyl]-amide] are 6.85 and 6.90.
In the same order, the values of `COC[C@H](CCS(C)(=O)=O)NC(=O)c1c[nH]c2ncc(-c3nn(C)c4cc(F)ccc34)nc12` [Example I-192, 2-(6-Fluoro-1-methyl-1H-indazol-3-yl)-5H-pyrrolo[2,3-b]pyrazine-7-carboxylic acid ((S)-3-methanesulfonyl-1-methoxymethyl-propyl)-amide] are 8.73 and 6.87.
On the same counts, the results for `C[C@@H](COC(F)F)NC(=O)c1c[nH]c2ncc(-c3nn(C)c4cc(F)ccc34)nc12` [Example I-193, 2-(6-Fluoro-1-methyl-1H-indazol-3-yl)-5H-pyrrolo[2,3-b]pyrazine-7-carboxylic acid ((S)-2-difluoromethoxy-1-methyl-ethyl)-amide] are 9.10 and 6.85.
For `C[C@@H](O)[C@@H](NC(=O)c1c[nH]c2ncc(-c3nn(C)c4cc(F)ccc34)nc12)C(=O)N1CC(F)C1` [Example I-198, 2-(6-Fluoro-1-methyl-1H-indazol-3-yl)-5H-pyrrolo[2,3-b]pyrazine-7-carboxylic acid [(1R,2R)-1-(3-fluoro-azetidine-1-carbonyl)-2-hydroxy-propyl]-amide], the pIC50 is 8.79 in test [1] and 6.92 in test [2].
Regarding `CC(NC(=O)c1c[nH]c2ncc(-c3nn(C)c4cc(Cl)ccc34)nc12)c1nccn1C` (centres unmarked) [Example I-199, 2-(6-Chloro-1-methyl-1H-indazol-3-yl)-5H-pyrrolo[2,3-b]pyrazine-7-carboxylic acid [1-(1-methyl-1H-imidazol-2-yl)-ethyl]-amide], the pIC50 is 6.75 in test [1] and 7.19 in test [2].
On to `Cn1nc(-c2cnc3[nH]cc(C(=O)NC4(c5ccc(Br)cc5)CC4)c3n2)c2ccc(F)cc21` [Example I-208, 2-(6-Fluoro-1-methyl-1H-indazol-3-yl)-5H-pyrrolo[2,3-b]pyrazine-7-carboxylic acid [1-(4-bromo-phenyl)-cyclopropyl]-amide], for which the pIC50 in test [1] was 7.11; in test [2] it was 5.40 and < 5.00.
Turning to `COC[C@H](C)NC(=O)c1c[nH]c2ncc(-n3cnc4cc(Cl)ccc43)nc12` [Example I-223, 2-(5-Chloro-benzoimidazol-1-yl)-5H-pyrrolo[2,3-b]pyrazine-7-carboxylic acid ((S)-2-methoxy-1-methyl-ethyl)-amide], the pIC50 is 6.72 in test [1] and 6.38 in test [2].
In the case of `COC[C@H](C)NC(=O)c1c[nH]c2ncc(-n3cnc4ccc(Cl)cc43)nc12` [Example I-224, 2-(6-Chloro-bcnzoimidazol-1-yl)-5H-pyrrolo[2,3-b]pyrazine-7-carboxylic acid ((S)-2-methoxy-1-methyl-ethyl)-amide], the pIC50 in test [1] is 6.46; in test [2], 6.45.
As for `COC[C@H](C)NC(=O)c1c[nH]c2ncc(-c3nn(CCN(C)C)c4cc(Cl)ccc34)nc12` [Example I-234, 2-[6-Chloro-1-(2-dimethylamino-ethyl)-1H-indazol-3-yl]-5H-pyrrolo[2,3-b]pyrazine-7-carboxylic acid ((S)-2-methoxy-1-methyl-ethyl)-amide], the values for the pIC50 in test [1] and in test [2] were 8.54 and 7.02, respectively.
On the same counts, the results for `COC[C@H](C)NC(=O)c1c[nH]c2ncc(-c3nn(Cc4ccc(N5CCOCC5)nc4)c4cc(F)ccc34)nc12` [Example I-237, 2-[6-Fluoro-1-(6-morpholin-4-yl-pyridin-3-ylmethyl)-1H-indazol-3-yl]-5H-pyrrolo[2,3-b]pyrazine-7-carboxylic acid ((S)-2-methoxy-1-methyl-ethyl)-amide] are 9.14 and 7.64.
In the same order, the values of `COC[C@H](C)NC(=O)c1c[nH]c2ncc(-c3nn(Cc4cccnc4)c4cc(F)ccc34)nc12` [Example I-241, 2-(6-Fluoro-1-pyridin-3-ylmethyl-1H-indazol-3-yl)-5H-pyrrolo[2,3-b]pyrazine-7-carboxylic acid ((S)-2-methoxy-1-methyl-ethyl)-amide] are 9.39 and 7.69.
In the same order, the values of `COC[C@H](C)NC(=O)c1c[nH]c2ncc(-c3nn(CCN4CCCC4)c4cc(F)ccc34)nc12` [Example I-242, 2-[6-Fluoro-1-(2-pyrrolidin-1-yl-ethyl)-1H-indazol-3-yl]-5H-pyrrolo[2,3-b]pyrazine-7-carboxylic acid ((S)-2-methoxy-1-methyl-ethyl)-amide] are 8.68 and 6.68.
Regarding `COC[C@H](C)NC(=O)c1c[nH]c2ncc(-c3nn(CCN4CC[C@H](F)C4)c4cc(F)ccc34)nc12` [Example I-243, 2-{6-Fluoro-1-[2-((S)-3-fluoro-pyrrolidin-1-yl)-ethyl]-1H-indazol-3-yl}-5H-pyrrolo[2,3-b]pyrazine-7-carboxylic acid ((S)-2-methoxy-1-methyl-ethyl)-amide], the pIC50 in test [1] is 8.83; in test [2] it was 7.15.
In the same order, the values of `COC[C@H](C)NC(=O)c1c[nH]c2ncc(-c3nn(CCn4cccn4)c4cc(F)ccc34)nc12` [Example I-244, 2-[6-Fluoro-1-(2-pyrazol-1-yl-ethyl)-1H-indazol-3-yl]-5H-pyrrolo[2,3-b]pyrazine-7-carboxylic acid ((S)-2-methoxy-1-methyl-ethyl)-amide] are 8.26 and 6.49.
In the same order, the values of `CC(NC(=O)c1c[nH]c2ncc(-c3nn(CCN4CCOCC4)c4cc(Cl)ccc34)nc12)c1cccnc1` (centres unmarked) [Example I-245, 2-[6-Chloro-1-(2-morpholin-4-yl-ethyl)-1H-indazol-3-yl]-5H-pyrrolo[2,3-b]pyrazine-7-carboxylic acid (1-pyridin-3-yl-ethyl)-amide] are 7.33 and 6.88.
On the same counts, the results for `CC(NC(=O)c1c[nH]c2ncc(-c3nn(CCN(C)C)c4cc(Cl)ccc34)nc12)c1cccnc1` (centres unmarked) [Example I-246, 2-[6-Chloro-1-(2-dimethylamino-ethyl)-1H-indazol-3-yl]-5H-pyrrolo[2,3-b]pyrazine-7-carboxylic acid (1-pyridin-3-yl-ethyl)-amide] are 7.38 and 6.45.
For the compound `CC(NC(=O)c1c[nH]c2ncc(-c3nn(C)c4cc(Cl)ccc34)nc12)c1cccnc1` (centres unmarked) [Example I-247, 2-(6-Chloro-1-methyl-1H-indazol-3-yl)-5H-pyrrolo[2,3-b]pyrazine-7-carboxylic acid (1-pyridin-3-yl-ethyl)-amide], the pIC50 in test [1] is 7.18; in test [2], 7.16.
On the same counts, the results for `CC(NC(=O)c1c[nH]c2ncc(-c3nn(CCN4CCOCC4)c4cc(F)ccc34)nc12)c1ccncc1` (centres unmarked) [Example I-248, 2-[6-Fluoro-1-(2-morpholin-4-yl-ethyl)-1H-indazol-3-yl]-5H-pyrrolo[2,3-b]pyrazine-7-carboxylic acid (1-pyridin-4-yl-ethyl)-amide] are 7.27 and 6.29.
On the same counts, the results for `CC(NC(=O)c1c[nH]c2ncc(-c3nn(CCN(C)C)c4cc(F)ccc34)nc12)c1ccncc1` (centres unmarked) [Example I-249, 2-[1-(2-Dimethylamino-ethyl)-6-fluoro-1H-indazol-3-yl]-5H-pyrrolo[2,3-b]pyrazine-7-carboxylic acid (1-pyridin-4-yl-ethyl)-amide] are 6.77 and 5.70.
In the same order, the values of `CC(Cc1ccccn1)NC(=O)c1c[nH]c2ncc(-c3nn(CCN4CCCC4)c4cc(F)ccc34)nc12` (centres unmarked) [Example I-250, 2-[6-Fluoro-1-(2-pyrrolidin-1-yl-ethyl)-1H-indazol-3-yl]-5H-pyrrolo[2,3-b]pyrazine-7-carboxylic acid (1-methyl-2-pyridin-2-yl-ethyl)-amide] are under 6.00 and 5.05.
On to `C[C@@H](NC(=O)c1c[nH]c2ncc(-c3nn(C)c4cc(F)ccc34)nc12)C1COC1` [Example I-252, 2-(6-Fluoro-1-methyl-1H-indazol-3-yl)-5H-pyrrolo[2,3-b]pyrazine-7-carboxylic acid ((R)-1-oxetan-3-yl-ethyl)-amide], for which the results for the pIC50 in test [1] and in test [2] were 7.71 and 7.17, respectively.
On the same counts, the results for `C[C@H](NC(=O)c1c[nH]c2ncc(-c3nn(C)c4cc(F)ccc34)nc12)c1cccc(OC(F)(F)F)c1` [Example I-253, 2-(6-Fluoro-1-methyl-1H-indazol-3-yl)-5H-pyrrolo[2,3-b]pyrazine-7-carboxylic acid [(S)-1-(3-trifluoromethoxy-phenyl)-ethyl]-amide] are under 6.00 and 5.20.
Regarding `C[C@@H](NC(=O)c1c[nH]c2ncc(-c3nn(C)c4cc(F)ccc34)nc12)c1cccc(OC(F)(F)F)c1` [Example I-254, 2-(6-Fluoro-1-methyl-1H-indazol-3-yl)-5H-pyrrolo[2,3-b]pyrazine-7-carboxylic acid [(R)-1-(3-trifluoromethoxy-phenyl)-ethyl]-amide], the pIC50 in test [1] is 7.73; in test [2], 5.49.
In the same order, the values of `CC(C)NC(=O)c1c[nH]c2ncc(-c3nn(C)c4ccc(Oc5cccc(Cl)c5)cc34)nc12` [Example I-280, 2-[5-(3-Chloro-phenoxy)-1-methyl-1H-indazol-3-yl]-5H-pyrrolo[2,3-b]pyrazine-7-carboxylic acid isopropylamide] are 6.62 and 6.42.
